Results from patent US20260217767A1, “NOVEL A4B7 THIOETHER PEPTIDE DIMER ANTAGONISTS” (Protagonist Therapeutics, Inc., priority 2014, published 2026).
Where a SMILES comes first, the peptide text is derived from it.

Columns and labels:
[1] = Simulated Intestinal Fluid (SIF) Stability Assay; format: in vitro ADME; settings: pig, simulated intestinal fluid (SIF) with 1% porcine pancreatin, pH 6.5, porcine pancreatin, 37° C.; dimers, Table 7
How it was run: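 Peptide at 22 μM final was incubated at 37° C in blank FaSSIF pH 6.5 with 1% porcine pancreatin. Timed samples were quenched in acetonitrile/methanol/formic acid with internal standard and analysed by LC-MS/MS. Half-lives came from first-order exponential fits of percent remaining.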

[2] = Simulated Gastric Fluid (SGF) Stability Assay; format: in vitro ADME; settings: pig, simulated gastric fluid (SGF) with porcine pepsin, pH 2, 37° C., dimers, Table 7
Description: Simulated Gastric Fluid (SGF) Stability Assays
Studies were carried out in simulated gastric fluid (SGF) to evaluate intestinal stability of the peptide molecules of the instant invention. SGF was prepared by adding 20 mg NaCl, 32 mg porcine pepsin (MP Biochemicals, catalog 02102599), and 70 μl HCl to 10 ml water (final pH=2). Aliquots of SGF (0.5 ml each) were pre-warmed at 37° C. To start the reaction, 1 μl of peptide stock solution (10 mM in DMSO) was added to 0.5 ml SGF and thoroughly mixed such that the final peptide concentration was 20 μM. The reactions were incubated at 37° C. with gentle shaking. At each time point (0, 15, 30, 60 min) 50 μl aliquots were removed and added to 200 μl acetonitrile containing 0.1% formic acid to quench the reaction. Samples are stored at 4° C. until the end of the experiment and centrifuged at 10,000 rpm for 5 minutes. Aliquots of the supernatant were removed, diluted 1:1 into distilled water containing internal standard, and analyzed by LCMS/MS. Percent remaining at each timepoint was calculated based on the peak area response ratio of test to compound to internal standard. Time 0 was set to 100%, and all later timepoints were calculated relative to time 0. Half-lives were calculated by fitting to a first-order exponential decay equation using GraphPad.

[3] = molecular target: T1, α4β1 (Homo sapiens, UniProt P05556+P13612); assay: α4β1-VCAM Competition ELISA; format: binding; settings: thioether peptide dimers, Table 7; read-out: ELISA A4B1
T1 construct: purchased R&D Systems 5668-A4
T1 sequence (P13612 34-977 limits assumed): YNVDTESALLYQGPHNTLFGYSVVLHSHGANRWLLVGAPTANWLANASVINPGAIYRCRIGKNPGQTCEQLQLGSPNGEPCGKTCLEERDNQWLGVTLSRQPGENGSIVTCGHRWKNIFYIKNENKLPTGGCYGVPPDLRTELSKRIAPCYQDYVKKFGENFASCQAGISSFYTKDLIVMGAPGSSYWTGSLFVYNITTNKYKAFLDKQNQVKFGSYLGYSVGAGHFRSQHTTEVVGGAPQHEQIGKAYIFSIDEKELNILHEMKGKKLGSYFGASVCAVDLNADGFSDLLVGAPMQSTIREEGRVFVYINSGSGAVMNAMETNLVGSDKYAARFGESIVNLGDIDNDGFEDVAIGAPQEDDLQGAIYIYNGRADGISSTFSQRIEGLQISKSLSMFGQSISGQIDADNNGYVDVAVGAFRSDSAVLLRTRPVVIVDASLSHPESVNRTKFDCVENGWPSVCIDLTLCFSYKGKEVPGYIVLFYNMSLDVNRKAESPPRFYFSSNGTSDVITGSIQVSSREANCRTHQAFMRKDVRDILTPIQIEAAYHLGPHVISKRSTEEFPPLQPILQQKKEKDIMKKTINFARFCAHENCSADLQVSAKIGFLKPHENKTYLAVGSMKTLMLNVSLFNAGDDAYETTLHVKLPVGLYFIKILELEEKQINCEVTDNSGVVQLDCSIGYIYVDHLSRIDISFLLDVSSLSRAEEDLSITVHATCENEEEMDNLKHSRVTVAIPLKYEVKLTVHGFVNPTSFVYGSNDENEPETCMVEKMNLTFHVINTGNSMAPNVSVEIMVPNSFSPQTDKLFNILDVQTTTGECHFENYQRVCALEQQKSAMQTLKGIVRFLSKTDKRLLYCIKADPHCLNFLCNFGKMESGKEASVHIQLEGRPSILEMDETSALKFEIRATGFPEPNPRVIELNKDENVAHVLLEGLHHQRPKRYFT
T1 sequence (P05556 21-728 limits assumed): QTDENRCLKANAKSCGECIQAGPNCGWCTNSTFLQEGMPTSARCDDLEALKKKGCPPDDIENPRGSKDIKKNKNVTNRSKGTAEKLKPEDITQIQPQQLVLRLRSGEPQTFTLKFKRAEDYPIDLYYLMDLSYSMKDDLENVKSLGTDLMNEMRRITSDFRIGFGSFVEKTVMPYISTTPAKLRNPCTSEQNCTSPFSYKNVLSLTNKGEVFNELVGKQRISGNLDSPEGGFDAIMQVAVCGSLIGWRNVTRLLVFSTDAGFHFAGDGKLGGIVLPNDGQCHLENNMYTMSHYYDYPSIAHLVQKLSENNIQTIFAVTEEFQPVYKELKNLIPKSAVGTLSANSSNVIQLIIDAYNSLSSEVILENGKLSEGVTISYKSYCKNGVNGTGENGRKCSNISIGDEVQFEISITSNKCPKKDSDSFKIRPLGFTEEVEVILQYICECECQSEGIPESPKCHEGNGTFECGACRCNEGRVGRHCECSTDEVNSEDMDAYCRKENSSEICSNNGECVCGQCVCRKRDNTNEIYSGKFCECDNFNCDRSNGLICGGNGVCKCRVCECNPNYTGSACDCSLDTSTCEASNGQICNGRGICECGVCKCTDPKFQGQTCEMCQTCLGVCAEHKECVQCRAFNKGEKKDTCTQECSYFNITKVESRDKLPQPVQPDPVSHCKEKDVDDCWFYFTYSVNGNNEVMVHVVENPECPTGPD
Description: α4β1-VCAM Competition ELISA
A Nunc MaxiSorp plate was coated with rh VCAM-1/CD106 Fc chimera (R&D #862-VC) at 400 ng/well in 50 ul per well in 1×PBS and incubated overnight at 4° C. The solution was removed by shaking and then blocked with 250 ul of 1% BSA in 1×PBS per well. The wells were then incubated at room temperature for 1 hr with shaking. Each well was then washed once with wash buffer (50 mM Tris-HCl pH7.6, 100 mM NaCL, 1 mM MnCl2 or MgCl2, 0.05% Tween-20). 25 ul of serial dilutions of peptides starting at 200 μM in assay buffer (Assay buffer: 50 mM Tris-HCl pH7.6, 100 mM NaCl, 1 mM MnCl2 or MgCl2, 0.05% Tween-20) was added to each well. Additionally, 25 μl of α4β1 (R&D Systems #5668-A4) was added to each well at a fixed concentration of 120 nM. The final peptide and α4β1 concentrations were 100 μM and 60 nM, respectively. The plates were then incubated at 37° C. for 2 hr. The solution was then removed by shaking and each well was washed three times with wash buffer. 50 ul of 9F10 antibody at 4 ug/ml (purified mouse anti-human CD49d, BD Bioscience Cat #555502) was then added to each well, and the plate was incubated at room temperature for Ihr with shaking. The solution was again removed by shaking, and each well was washed three times with wash buffer. 50 μl of peroxidase-conjugated AffiniPure Goat anti-mouse IgG (Jackson immune research cat #115-035-003) diluted in 1:5000 in assay buffer was added to each well. The plate was incubated at room temperature for 30 min with shaking. Each well was then washed 3 times with wash buffer. 100 ul of TMB was then added to each well and closely observe during developing time. The reaction was stepped with 2N H2SO4 and absorbance was read at 450 nm.

[4] = molecular target: Jurkat E6.1 cells (Homo sapiens, UniProt P05556+P13612); assay: α4β1-VCAM Cell Adhesion Assay; format: cell-based; settings: thioether peptide dimers, Table 7; read-out: Cell Adhesion A4B1
Jurkat E6.1 cells, sequence (P13612 34-1032): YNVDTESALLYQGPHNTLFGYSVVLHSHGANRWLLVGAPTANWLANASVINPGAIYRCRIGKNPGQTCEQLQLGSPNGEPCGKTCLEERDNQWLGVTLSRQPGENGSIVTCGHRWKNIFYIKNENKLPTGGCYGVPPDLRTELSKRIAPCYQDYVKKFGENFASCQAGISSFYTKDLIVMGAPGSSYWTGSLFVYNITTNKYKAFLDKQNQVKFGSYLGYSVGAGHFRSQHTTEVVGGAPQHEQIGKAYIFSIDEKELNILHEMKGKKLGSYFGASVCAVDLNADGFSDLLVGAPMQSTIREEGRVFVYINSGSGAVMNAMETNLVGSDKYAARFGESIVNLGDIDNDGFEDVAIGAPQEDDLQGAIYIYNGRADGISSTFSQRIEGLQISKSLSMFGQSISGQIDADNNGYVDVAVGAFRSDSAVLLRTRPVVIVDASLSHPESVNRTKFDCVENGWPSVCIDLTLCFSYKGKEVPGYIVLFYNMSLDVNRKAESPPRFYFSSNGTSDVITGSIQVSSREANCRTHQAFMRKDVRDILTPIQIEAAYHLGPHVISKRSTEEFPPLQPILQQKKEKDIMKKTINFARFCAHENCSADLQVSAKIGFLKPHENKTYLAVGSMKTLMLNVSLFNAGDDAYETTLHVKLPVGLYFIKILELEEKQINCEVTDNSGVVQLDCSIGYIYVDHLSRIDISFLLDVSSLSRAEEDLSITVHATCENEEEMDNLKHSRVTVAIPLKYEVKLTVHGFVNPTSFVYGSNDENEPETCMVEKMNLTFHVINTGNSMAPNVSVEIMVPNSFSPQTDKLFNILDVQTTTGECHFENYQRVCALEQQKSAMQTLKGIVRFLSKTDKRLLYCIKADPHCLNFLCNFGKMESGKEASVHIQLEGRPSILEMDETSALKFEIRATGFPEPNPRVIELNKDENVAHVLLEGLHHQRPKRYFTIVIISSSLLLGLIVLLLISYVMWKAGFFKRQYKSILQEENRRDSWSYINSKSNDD
Jurkat E6.1 cells, sequence (P05556 21-798): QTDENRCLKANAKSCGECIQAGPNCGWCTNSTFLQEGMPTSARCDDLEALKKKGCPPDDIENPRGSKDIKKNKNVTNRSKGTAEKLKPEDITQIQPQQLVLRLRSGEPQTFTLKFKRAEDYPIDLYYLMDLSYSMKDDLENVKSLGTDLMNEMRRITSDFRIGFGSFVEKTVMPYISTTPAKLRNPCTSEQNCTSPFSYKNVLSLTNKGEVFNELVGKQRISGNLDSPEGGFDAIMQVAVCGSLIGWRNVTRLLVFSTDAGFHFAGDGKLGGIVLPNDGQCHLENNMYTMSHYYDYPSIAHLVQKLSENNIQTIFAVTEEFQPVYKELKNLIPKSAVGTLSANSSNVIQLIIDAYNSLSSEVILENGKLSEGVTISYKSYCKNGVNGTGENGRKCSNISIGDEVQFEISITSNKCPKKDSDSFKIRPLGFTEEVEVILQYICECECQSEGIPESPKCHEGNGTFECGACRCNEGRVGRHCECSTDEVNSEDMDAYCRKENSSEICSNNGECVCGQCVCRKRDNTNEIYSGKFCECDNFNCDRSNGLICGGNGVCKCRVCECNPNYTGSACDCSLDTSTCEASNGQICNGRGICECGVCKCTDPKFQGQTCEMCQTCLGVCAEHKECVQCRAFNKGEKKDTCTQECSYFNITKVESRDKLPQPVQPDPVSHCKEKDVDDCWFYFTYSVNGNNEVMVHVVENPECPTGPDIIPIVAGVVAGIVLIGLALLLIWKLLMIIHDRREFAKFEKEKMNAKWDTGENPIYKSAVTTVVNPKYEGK
Description: α4β1-VCAM Cell Adhesion Assay
Jurkat E6.1 cells (Sigma #88042803) were cultured in RPMI 1640 HEPES medium (Invitrogen #22400-089) supplemented with 10% serum (Fetal Bovine Serum, Invitrogen #16140-071), 1 mM sodium pyruvate (Invitrogen #11360-070), 2 mM L-glutamine (Invitrogen #25030-081) and Penicillin-Streptomycin (Invitrogen #15140-122) at 100 units of penicillin and 100 μg of streptomycin per ml. The cells were washed two times in DMEM medium (ATCC #30-2002) supplemented with 0.1% BSA, 10 mM HEPES pH 7 and 1 mM MnCl2. The cells were re-suspended in supplemented DMEM medium at a density of 4×10^6 cells/ml.
A Nunc MaxiSorp plate was coated with rh VCAM-1/CD106 Fc chimera (R&D #862-VC) at 400 ng per well in 50 μl per well in 1×PBS and incubated at 4° C. overnight. The solution was then removed by shaking, blocked with 250 μl per well PBS containing 1% BSA, and incubated at 37° C. for 1 hr. The solution was removed by shaking. Peptides were diluted by serial dilution in a final volume of 50 μl per well (2× concentration). To each well, 50 μl of cells (200,000 cells) were added and the plate was incubated at 37° C., 5% CO2 for 30-45 min to allow cell adhesion. The wells were washed manually three times (100 μl per wash) with supplemented DMEM. After the final wash, 100 μl/well of supplemented DMEM and 10 ul/well of MTT reagent (ATTC cat #30-1010K) were added. The plate was incubated at 37° C., 5% CO2 for 2-3 hrs until a purple precipitate is visible. 100 ul of Detergent Reagent (ATTC cat #30-1010K) is added to each well. The plate was covered from the light, wrapped in Parafilm to prevent evaporation, and left overnight at room temperature in the dark. The plate was shaken for 5 min and the absorbance at 570 nm is measured. To calculate the dose response, the absorbance value of control wells not containing cells was subtracted from each test well.

[5] = test system: CD4+/CD45RO+ memory T cells; assay: PBMC Memory T Cell Adhesion Assay; format: cell-based, human; settings: thioether monomer peptides, Table 6
Description: PBMC Memory T Cell Adhesion Assay
Fresh CD4+/CD45RO+ memory T cells were isolated from human peripheral blood mononuclear cell (PBMC) donors by Aragen Bioscience Inc. (Morgan Hill, CA). The assay plate was prepared using IgG Fc capture antibody (donkey anti human) immobilized at 500 ng/well in 50 mM sodium bicarbonate buffer, pH 9.5, ON, 4 C onto a Greiner Fluotrac plate (100 ul per well). The plate was rinsed two time with Blocking Buffer (25 mM Tris HCl, pH7.5, 150 mM NaCl, 1.5% BSA, 0.05% Tween), and blocked with Blocking Buffer for 2 hours at 37 C or 5 hours at RT using 200 ul per well. The Blocking Buffer was removed and either MAdCAM-1 or VCAM-1 at 400 ng/well in Blocking Buffer was added and the plate incubated overnight at 4 C (100 ul per well). The plate was washed two times with Blocking Buffer, and rinsed once with 200 ul Binding Media (DMEM phenol red free, 10 mM HEPES, 1×Na pyruvate, 1× Glutamine, and supplemented with 1 mM MnC12 prior to use). To prepare cells, approximately 25 million CD4+/CD45RO+ memory T cells were counted by trypan blue exclusion using a haemocytometer to determine viability and cell count. The cells were transferred to a 50 ml conical tube, and centrifuged at 1200 rpm for 10 minute. The media was aspirated and the cell pellet resuspended in 15 ml Binding Media. The cells were centrifuged again and resuspended in the appropriate amount of Binding Media to be used for assays (50 ul of cells per well at 2× the final density). To each well, and equal volume (50 ul) of test compound was added and the plate was incubated for 1.5 hours at 37 C, 5% CO2. Each well was rinsed 3× with 150 ul per well of Binding Media. […] The plate was incubated at 37 C, 5% CO2, for 45 minutes. The plate was protected from light by using black adhesive seals. Fluorescence intensity was measured using a Molecular Devices Gemini EM Fluorescent Plate Reader (Ex 485/Em530, Bottom Read, Reading Sensitivity=20). IC50 curves are generated using Graph Pad Prism and the curves analyzed using analyzed using a non-linear regression (four parameters) algorithm. The log (concentration) versus RFU (Ex485/Em530) was plotted to determine IC50 values.

SMILES	half-life at 22 μM [1] [h]	half-life at 20 μM [2] [h]	IC50 [3] [nM]	IC50 [4] [nM]	IC50 [5] [nM]
CC(C)C[C@@H]1NC(=O)[C@H]([C@@H](C)O)NC(=O)[C@H](CC(=O)O)NC(=O)[C@H](CO)NC(=O)[C@H](CCCNC(=N)N)N(C)C(=O)c2ccccc2CSC(C)(C)[C@@H](C(=O)N[C@@H](Cc2ccc(O)cc2)C(=O)N[C@H](CCC(=O)O)C(=O)N[C@H](CCCCN)C(N)=O)NC1=O [compound 169] (HELM PEPTIDE1{[meR].S.D.T.L.[Pen].Y.[dE].[dK].[am]}|CHEM1{[O=C(c1ccccc1C[*:2])[*:1]]}$PEPTIDE1,CHEM1,1:R1-1:R1|PEPTIDE1,CHEM1,6:R3-1:R2$$$V2.0)	> 3	> 3	100 to 1000	> 100000	–
CC(C)C[C@@H]1NC(=O)[C@H]([C@@H](C)O)NC(=O)[C@H](CC(=O)O)NC(=O)[C@H](CO)NC(=O)[C@H](CCCNC(=N)N)N(C)C(=O)c2ccccc2CSC(C)(C)[C@@H](C(=O)N[C@@H](Cc2c[nH]c3ccccc23)C(=O)N[C@@H](CCC(=O)O)C(=O)N(C)[C@H](CCCCN)C(N)=O)NC1=O [compound 152] (HELM PEPTIDE1{[meR].S.D.T.L.[Pen].W.E.[CN([C@H](CCCCN)C(=O)[*:2])[*:1]].[am]}|CHEM1{[O=C(c1ccccc1C[*:2])[*:1]]}$PEPTIDE1,CHEM1,1:R1-1:R1|PEPTIDE1,CHEM1,6:R3-1:R2$$$V2.0)	> 3	> 1	25 to 100	> 100000	–
CC(C)C[C@@H]1NC(=O)[C@H]([C@@H](C)O)NC(=O)[C@H](CC(=O)O)NC(=O)[C@H](CO)NC(=O)[C@H](CCCNC(=N)N)N(C)C(=O)c2ccccc2CSC(C)(C)[C@@H](C(=O)N[C@@H](Cc2c[nH]c3ccccc23)C(=O)N[C@H](CCC(=O)O)C(N)=O)NC1=O [compound 98] (HELM PEPTIDE1{[meR].S.D.T.L.[Pen].W.[dE].[am]}|CHEM1{[O=C(c1ccccc1C[*:2])[*:1]]}$PEPTIDE1,CHEM1,1:R1-1:R1|PEPTIDE1,CHEM1,6:R3-1:R2$$$V2.0)	–	–	–	–	100 to 1000
CC(C)C[C@@H]1NC(=O)[C@H]([C@@H](C)O)NC(=O)[C@H](CC(=O)O)NC(=O)[C@H](CO)NC(=O)[C@H](CCCNC(=N)N)N(C)C(=O)c2ccccc2CSC(C)(C)[C@@H](C(=O)N[C@@H](Cc2ccccc2)C(=O)N[C@@H](CCC(=O)O)CC(=O)N[C@H](CCCCN)C(N)=O)NC1=O [compound 164] (HELM PEPTIDE1{[meR].S.D.T.L.[Pen].F.[O=C(O)CC[C@@H](CC(=O)[*:2])N[*:1]].[dK].[am]}|CHEM1{[O=C(c1ccccc1C[*:2])[*:1]]}$PEPTIDE1,CHEM1,1:R1-1:R1|PEPTIDE1,CHEM1,6:R3-1:R2$$$V2.0)	> 3	> 1	25 to 100	> 100000	–
